Key:
[1] = tested on: HCV replication, genotype 1a (Huh-7 HCV replicon cell); experiment: Replicon ELISA cell based assay, genotype 1a; conditions: Hepatitis C virus, Huh-7 HCV replicon cells, 72 hours, mean, assayed at least twice
Description: (§1) Replicon ELISA Cell Based Assay
(§2) 100 μL of medium containing 10% FCS were added to each well of clear, flat-bottomed 96 well microplates, excepting wells in the top row. Test compound was diluted in assay medium to twice the final required starting concentration from a 40 mM stock solution in DMSO. 200 μL of the starting dilution were introduced into two wells each in the top row and doubling dilutions made down the plate by the sequential transfer of 100 μL aliquots with thorough mixing in the wells; the final 100 μL were discarded. The two bottom rows were not used for compound dilutions. Huh-7 HCV replicon cell monolayers nearing confluency were stripped from growth flasks with versene-trypsin solution and the cells were resuspended in assay medium at either 2×10^5 cells/mL (sub-line 5-15; genotype 1b; Lohmann, V., Korner, F., Koch, J-O., Herian, U., Thielmann, L. and Bartenschlager, R., Science, 1999, 285, 110-113) or at 3×10^5 cells/mL (genotype 1a; Gu, B., Gates, A. T., Isken, O., Behrens, S. E. and Sarisky, R. T., J. Virol., 2003, 77, 5352-5359). 100 μL of cell suspension were added to all wells and the plates incubated at 37° C. for 72 hours in a 5% CO2 atmosphere.
(§3) Following incubation, the assay medium was aspirated from the plates. The cell sheets were washed by gentle immersion in phosphate buffered saline (PBS), which was then aspirated off, and fixed with acetone:methanol (1:1) for 5 minutes. Following a further wash with PBS, 100 μL of ELISA diluent (PBS+0.05% v/v Tween 20+2% w/v skimmed milk powder) were added to all wells and the plates incubated at 37° C. for 30 minutes on an orbital platform. The diluent was removed and each well then received 50 μL of a 1/200 dilution of anti-HCV specific, murine, monoclonal antibody (either Virostat #1872 or #1877), except for wells in one of the compound-free control rows which received diluent alone to act as negative controls. The plates were incubated at 37° C. for 2 hours and washed 3 times with PBS/0.05% Tween 20, then 50 μL of horseradish peroxidase conjugated, anti-mouse, rabbit polyclonal serum (Dako #P0260), diluted 1/1000, were added to all wells. The plates were incubated for a further hour, the antibody removed and the cell sheets washed 5 times with PBS/Tween and blotted dry. The assay was developed by the addition of 50 μL of ortho-phenylenediamine/peroxidase substrate in urea/citrate buffer (SigmaFast, Sigma #P-9187) to each well, and colour allowed to develop for up to 15 minutes. The reaction was stopped by the addition of 25 μL per well of 2 M sulphuric acid and the plates were read at 490 nm on a Fluostar Optima spectrophotometer.
(§4) The substrate solution was removed and the plates were washed in tap water, blotted dry and the cells stained with 5% carbol fuchsin in water for 30 minutes. The stain was discarded and the cell sheets washed, dried and examined microscopically to assess cytotoxicity.
(§5) The absorbance values from all compound-free wells that had received both primary and secondary antibodies were averaged to obtain a positive control value. The mean absorbance value from the compound-free wells that had not received the primary antibody was used to provide the negative (background) control value. The readings from the duplicate wells at each compound concentration were averaged and, after the subtraction of the mean background from all values, were expressed as a percentage of the positive control signal. The quantifiable and specific reduction of expressed protein detected by the ELISA in the presence of a drug can be used as a measure of replicon inhibition. GraFit software (Erithacus Software Ltd.) was used to plot the curve of percentage inhibition against compound concentration and derive the 50% inhibitory concentration (IC50) for the compound.

[2] = tested on: HCV replication, genotype 1b (Huh-7 HCV replicon cell, sub-line 5-15); experiment: Replicon ELISA cell based assay, genotype 1b; conditions: Hepatitis C virus, Huh-7 HCV replicon cells, genotype 1b (sub-line 5-15), 72 hours, mean, assayed at least twice
Description: as §1, §2, §3, §4, §5

Structure (SMILES) | IC50 [1] | IC50 [2]
CC(C)N(c1cc(-c2ccccc2)sc1C(=O)O)C(=O)[C@H]1CC[C@H](C)CC1 [Compound A, 5-Phenyl-3-[[(trans-4-methylcyclohexyl)carbonyl](1-methylethyl)amino]-2-thiophenecarboxylic acid, reference compound] | 1 to 5 µM | 0.1 to 0.5 µM
CC(C)N(c1cc(-c2ccc(Cl)cc2)sc1C(=O)O)C(=O)[C@H]1CC[C@H](C)CC1 [Compound B, 5-(4-Chlorophenyl)-3-[[(trans-4-methylcyclohexyl)carbonyl](1-methylethyl)amino]-2-thiophenecarboxylic acid, reference compound] | 1 to 5 µM | 1 to 5 µM
CC(C)N(c1cc(-c2ccc(-c3ccc(Cl)cc3)cc2)sc1C(=O)O)C(=O)[C@H]1CC[C@H](C)CC1 [Compound C, 5-(4′-Chloro-4-biphenylyl)-3-[[(trans-4-methylcyclohexyl)carbonyl](1-methylethyl)amino]-2-thiophenecarboxylic acid, reference compound] | 1 to 5 µM | > 5 µM
CC(C)N(c1cc(-c2ccc(C#N)cc2)sc1C(=O)O)C(=O)[C@H]1CC[C@H](C)CC1 [Compound D, 5-(4-Cyanophenyl)-3-[[(trans-4-methylcyclohexyl)carbonyl](1-methylethyl)amino]-2-thiophenecarboxylic acid, reference compound] | 1 to 5 µM | 1 to 5 µM
CC(=O)c1ccc(-c2cc(N(C(=O)[C@H]3CC[C@H](C)CC3)C(C)C)c(C(=O)O)s2)cc1 [Compound E, 5-(4-Acetylphenyl)-3-[[(trans-4-methylcyclohexyl)carbonyl](1-methylethyl)amino]-2-thiophenecarboxylic acid, reference compound] | 1 to 5 µM | 1 to 5 µM
CC(C)N(C(=O)c1ccc(Cl)cc1Cl)c1cc(-c2ccc(-c3nnn[nH]3)cc2)sc1C(=O)O [Compound F, 3-[[(2,4-Dichlorophenyl)carbonyl](1-methylethyl)amino]-5-[4-(1H-tetrazol-5-yl)phenyl]-2-thiophenecarboxylic acid, reference compound] | 1 to 5 µM | > 5 µM
CC(C)N(c1cc(-c2ccc(-c3cc4ncccc4o3)cc2)sc1C(=O)O)C(=O)[C@H]1CC[C@H](C)CC1 [Example 1, 5-(4-Furo[3,2-b]pyridin-2-ylphenyl)-3-[[(trans-4-methylcyclohexyl)carbonyl](1-methylethyl)amino]-2-thiophenecarboxylic acid] | 0.01 to 0.05 µM | 0.01 to 0.05 µM
CC(C)N(c1cc(-c2ccc(-c3cc4ncccn4n3)cc2)sc1C(=O)O)C(=O)[C@H]1CC[C@H](C)CC1 [Example 2, 3-[[(trans-4-Methylcyclohexyl)carbonyl](1-methylethyl)amino]-5-(4-pyrazolo[1,5-a]pyrimidin-2-ylphenyl)-2-thiophenecarboxylic acid] | 0.01 to 0.05 µM | 0.01 to 0.05 µM
CC(C)N(c1cc(-c2ccc(-c3cn4ccccc4n3)cc2)sc1C(=O)O)C(=O)[C@H]1CC[C@H](C)CC1 [Example 3, 5-(4-Imidazo[1,2-a]pyridin-2-ylphenyl)-3-[[(trans-4-methylcyclohexyl)carbonyl](1-methylethyl)amino]-2-thiophenecarboxylic acid] | 0.05 to 0.1 µM | 0.01 to 0.05 µM
CC(C)N(c1cc(-c2ccc(-c3cn4ccsc4n3)cc2)sc1C(=O)O)C(=O)[C@H]1CC[C@H](C)CC1 [Example 4, 5-(4-Imidazo[2,1-b][1,3]thiazol-6-ylphenyl)-3-[[(trans-4-methylcyclohexyl)carbonyl](1-methylethyl)amino]-2-thiophenecarboxylic acid] | 0.05 to 0.1 µM | 0.01 to 0.05 µM
Cc1cc(N)n2nc(-c3ccc(-c4cc(N(C(=O)[C@H]5CC[C@H](C)CC5)C(C)C)c(C(=O)O)s4)cc3)cc2n1 [Example 5, 5-[4-(7-Amino-5-methylpyrazolo[1,5-a]pyrimidin-2-yl)phenyl]-3-[[(trans-4-methylcyclohexyl)carbonyl](1-methylethyl)amino]-2-thiophenecarboxylic acid] | < 0.005 µM | < 0.005 µM
Cc1ccn2nc(-c3ccc(-c4cc(N(C(=O)[C@H]5CC[C@H](C)CC5)C(C)C)c(C(=O)O)s4)cc3)cc2n1 [Example 6, 3-[[(trans-4-Methylcyclohexyl)carbonyl](1-methylethyl)amino]-5[4-(5-methylpyrazolo[1,5-a]pyrimidin-2-yl)phenyl]-2-thiophenecarboxylic acid] | 0.05 to 0.1 µM | 0.01 to 0.05 µM
CC(C)N(c1cc(-c2ccc(-c3cc4nccc(N)n4n3)cc2)sc1C(=O)O)C(=O)[C@H]1CC[C@H](C)CC1 [Example 7, 5-[4-(7-Aminopyrazolo[1,5-a]pyrimidin-2-yl)phenyl]-3-[[(trans-4-methylcyclohexyl)carbonyl](1-methylethyl)amino]-2-thiophenecarboxylic acid] | < 0.005 µM | < 0.005 µM
CC(C)N(c1cc(-c2ccc(-c3nc4ncccc4o3)cc2)sc1C(=O)O)C(=O)[C@H]1CC[C@H](C)CC1 [Example 8, 3-[[(4-Methylcyclohexyl)carbonyl](1-methylethyl)amino]-5-(4-[1,3]oxazolo[4,5-b]pyridin-2-ylphenyl)-2-thiophenecarboxylic acid] | 0.01 to 0.05 µM | 0.01 to 0.05 µM
CC(C)N(c1cc(-c2ccc(-c3cnc4occc4c3)cc2)sc1C(=O)O)C(=O)[C@H]1CC[C@H](C)CC1 [Example 9, 5-(4-Furo[2,3-b]pyridin-5-ylphenyl)-3-[[(trans-4-methylcyclohexyl)carbonyl](1-methylethyl)amino]-2-thiophenecarboxylic acid] | 0.1 to 0.5 µM | 0.05 to 0.1 µM
CC(C)N(c1cc(-c2ccc(-c3nc4cc(N)ccc4o3)cc2)sc1C(=O)O)C(=O)[C@H]1CC[C@H](C)CC1 [Example 10, 5-[4-(5-Amino-1,3-benzoxazol-2-yl)phenyl]-3-[[(trans-4-methylcyclohexyl)carbonyl](1-methylethyl)amino]-2-thiophenecarboxylic acid] | 0.05 to 0.1 µM | 0.1 to 0.5 µM
CC(C)N(c1cc(-c2ccc(-c3nc4cccnc4o3)cc2)sc1C(=O)O)C(=O)[C@H]1CC[C@H](C)CC1 [Example 11, 3-[[(4-Methylcyclohexyl)carbonyl](1-methylethyl)amino]-5-(4-[1,3]oxazolo[5,4-b]pyridin-2-ylphenyl)-2-thiophenecarboxylic acid] | 0.1 to 0.5 µM | 0.1 to 0.5 µM
CC(C)N(c1cc(-c2ccc(-c3cc4cnccc4o3)cc2)sc1C(=O)O)C(=O)[C@H]1CC[C@H](C)CC1 [Example 12, 5-(4-Furo[3,2-c]pyridin-2-ylphenyl)-3-[[(trans-4-methylcyclohexyl)carbonyl](1-methylethyl)amino]-2-thiophenecarboxylic acid] | 0.1 to 0.5 µM | 0.05 to 0.1 µM
CC(C)N(c1cc(-c2ccc(-c3cc4cnccc4o3)cc2)sc1C(=O)O)C(=O)[C@H]1CC[C@H](C)CC1 [Example 13, Sodium 5-(4-furo[3,2-c]pyridin-2-ylphenyl)-3-[[(trans-4-methylcyclohexyl)carbonyl](1-methylethyl)amino]-2-thiophenecarboxylate] | 0.1 to 0.5 µM | 0.1 to 0.5 µM
CC(C)N(c1cc(-c2ccc(-c3cn4ccccc4n3)cc2)sc1C(=O)O)C(=O)[C@H]1CC[C@H](C(F)(F)F)CC1 [Example 14, 5-(4-Imidazo[1,2-a]pyridin-2-ylphenyl)-3-((1-methylethyl){[trans-4-(trifluoromethyl)cyclohexyl]carbonyl}amino)-2-thiophenecarboxylic acid] | 0.1 to 0.5 µM | 0.5 to 1 µM
